What was measured:
[1] = Membrane permeability, PermeaPad Plate (cell-free transport model); format: in vitro ADME; details: for Pe: 24 h, room temperature; for Pe class (low/medium/high; poor): class word printed beside Pe, no key given
Procedure: Membrane permeability was assessed using PermeaPad Plate according to the manufacturing procedure (innoME GmbH, Espelkamp, Germany). Briefly, 200 μL of water was added into the acceptor plate. 200 μL of 100–500 μM test compound in water was added directly to the well membranes of the donor plate. The donor plate contains a biomimetic membrane for simulating passive mass transfer through different barriers in the body. Then, the donor plate was placed into the acceptor plate wells and incubated at room temperature for 24 h in the dark. To determine the peak absorbance of test compounds, absorbance spectra of acceptor solutions and initial solutions for each test compound were read out. The permeability rate (Pe) was calculated using the formula:
[drawing 1] , where ODA is the absorbance of acceptor solution and ODE is the absorbance of the standard solution; if the compound is able to permeabilize the membrane and fully reach equilibrium, 250 μM will be the final concentration of solution in the donor and acceptor wells. The coefficient C was calculated using the formula:
[drawing 2] , where VA is the acceptor volume (cm^3), VD is the donor volume (cm^3), the membrane area is 0.24 cm^2, and the time is 86,400 s.

[2] = CytoTox-Glo Cytotoxicity Assay; format: cell-based; details: mouse; HL-1 cells, 100 μM solutions, 24 h incubation
Procedure: Cell viability was assessed using the CytoTox-Glo Cytotoxicity Assay according to the manufacturing procedure (Promega GmbH). Briefly, HL-1 cells were cultivated for 24 h in black-walled, clear-bottom 96-well microplates (Corning) covered with fibronectin in DMEM, containing different concentrations of the tested compound (10,000 cells/well). Luminescence of a luminogenic peptide substrate was measured before and after the addition of the lysis reagent (digitonin). The viable cell contribution was determined by a subtractive method. 0.1% DMSO-treated cells were taken as a control.

RyR2 = biological target: T1, RyR2 (Mus musculus, UniProt E9Q401); assay: Time-lapse [Ca2+]ER assay (RyR2 R-CEPIA1er assay) in HEK-293 cells with inducible WT RyR2; format: cell-based; details: for RyR2 effect class: 25 μM (S107 1 mM per Figure 2); for RyR2 effect class / EC50: HEK-293 RyR2 R-CEPIA1er cells; for EC50: value, interval; for effect on [Ca2+]ER / R-CEPIA1er fluorescence (F/F0): 25 μM, vs 0.1 v/v% DMSO
T1 construct: expressed in transfected cells; host or cells: HEK-293 cells stably expressing R-CEPIA1er with doxycycline-inducible WT RyR2
Source text: To assess the functional potency of novel agents for modulating RyR2 channel activity, we measured changes in Ca^2+ levels in ER of HEK-293 cells with inducible expression of wild-type RyR2 (WT RyR2).[33],[34] Because the expression of WT RyR2 introduces an additional spontaneous Ca^2+ leak from the ER, these cells are suitable for our purpose of testing potential RyR2 stabilizers.[35] The cells additionally stably express the Ca^2+ fluorescence indicator R-CEPIA1er, which is a genetically encoded sensor protein of Ca^2+ in the ER (the cell line was a gift from T. Murayama, Department of Pharmacology, Juntendo University School of Medicine, Tokyo, Japan).[36]
The addition of these compounds, which are known to inhibit excessive cardiac RyR2 activity, should reduce Ca^2+ leak from the ER, thus increasing the R-CEPIA1er fluorescence.
The fluorescence plate reader [Ca^2+]ER assay was performed according to the slightly modified protocol of Murayama and Kurebayashi.[36] […] After the cells were inducted with doxycycline for 24 h, changes in ER calcium concentrations [Ca^2+]ER were measured on a multiwell plate reader TECAN Spark 20 M at 37 °C. The 1000 × stock solutions of the test compounds were prepared in DMSO. Briefly, the culture medium was removed and 100 μL of Tyrode’s solution containing 2 mM CaCl2 was added to the cells. The time courses were recorded in each well. Fluorescence was evoked by a 560 nm excitation wavelength and collected in a bottom-read mode at 610 nm. Data was recorded every 10 s, exposure −20 flashes, excitation bandwidth −20 nm, emission bandwidth −20 nm. 100 μL of 0–100 μM solution of test compound in Tyrode’s solution containing 2 mM CaCl2 was injected in each well (speed 100 μL/s) at the 90 s time point. […] The 0.1 v/v% DMSO and 2 mM CaCl2 Tyrode’s solution was used as a control.
The dose–response curves were calculated using the software package GraphPad Prism version 8.3.1. (GraphPad Software, Inc.). All data are presented as mean ± SD in three independent experiments. Y = bottom + (top – bottom)/(1 + 10^((LogEC50 – X) × HillSlope)) was used, where HillSlope describes the steepness of the curve, and top and bottom are plateaus in the units of the Y-axis.

T1 sequence (E9Q401 whole entry): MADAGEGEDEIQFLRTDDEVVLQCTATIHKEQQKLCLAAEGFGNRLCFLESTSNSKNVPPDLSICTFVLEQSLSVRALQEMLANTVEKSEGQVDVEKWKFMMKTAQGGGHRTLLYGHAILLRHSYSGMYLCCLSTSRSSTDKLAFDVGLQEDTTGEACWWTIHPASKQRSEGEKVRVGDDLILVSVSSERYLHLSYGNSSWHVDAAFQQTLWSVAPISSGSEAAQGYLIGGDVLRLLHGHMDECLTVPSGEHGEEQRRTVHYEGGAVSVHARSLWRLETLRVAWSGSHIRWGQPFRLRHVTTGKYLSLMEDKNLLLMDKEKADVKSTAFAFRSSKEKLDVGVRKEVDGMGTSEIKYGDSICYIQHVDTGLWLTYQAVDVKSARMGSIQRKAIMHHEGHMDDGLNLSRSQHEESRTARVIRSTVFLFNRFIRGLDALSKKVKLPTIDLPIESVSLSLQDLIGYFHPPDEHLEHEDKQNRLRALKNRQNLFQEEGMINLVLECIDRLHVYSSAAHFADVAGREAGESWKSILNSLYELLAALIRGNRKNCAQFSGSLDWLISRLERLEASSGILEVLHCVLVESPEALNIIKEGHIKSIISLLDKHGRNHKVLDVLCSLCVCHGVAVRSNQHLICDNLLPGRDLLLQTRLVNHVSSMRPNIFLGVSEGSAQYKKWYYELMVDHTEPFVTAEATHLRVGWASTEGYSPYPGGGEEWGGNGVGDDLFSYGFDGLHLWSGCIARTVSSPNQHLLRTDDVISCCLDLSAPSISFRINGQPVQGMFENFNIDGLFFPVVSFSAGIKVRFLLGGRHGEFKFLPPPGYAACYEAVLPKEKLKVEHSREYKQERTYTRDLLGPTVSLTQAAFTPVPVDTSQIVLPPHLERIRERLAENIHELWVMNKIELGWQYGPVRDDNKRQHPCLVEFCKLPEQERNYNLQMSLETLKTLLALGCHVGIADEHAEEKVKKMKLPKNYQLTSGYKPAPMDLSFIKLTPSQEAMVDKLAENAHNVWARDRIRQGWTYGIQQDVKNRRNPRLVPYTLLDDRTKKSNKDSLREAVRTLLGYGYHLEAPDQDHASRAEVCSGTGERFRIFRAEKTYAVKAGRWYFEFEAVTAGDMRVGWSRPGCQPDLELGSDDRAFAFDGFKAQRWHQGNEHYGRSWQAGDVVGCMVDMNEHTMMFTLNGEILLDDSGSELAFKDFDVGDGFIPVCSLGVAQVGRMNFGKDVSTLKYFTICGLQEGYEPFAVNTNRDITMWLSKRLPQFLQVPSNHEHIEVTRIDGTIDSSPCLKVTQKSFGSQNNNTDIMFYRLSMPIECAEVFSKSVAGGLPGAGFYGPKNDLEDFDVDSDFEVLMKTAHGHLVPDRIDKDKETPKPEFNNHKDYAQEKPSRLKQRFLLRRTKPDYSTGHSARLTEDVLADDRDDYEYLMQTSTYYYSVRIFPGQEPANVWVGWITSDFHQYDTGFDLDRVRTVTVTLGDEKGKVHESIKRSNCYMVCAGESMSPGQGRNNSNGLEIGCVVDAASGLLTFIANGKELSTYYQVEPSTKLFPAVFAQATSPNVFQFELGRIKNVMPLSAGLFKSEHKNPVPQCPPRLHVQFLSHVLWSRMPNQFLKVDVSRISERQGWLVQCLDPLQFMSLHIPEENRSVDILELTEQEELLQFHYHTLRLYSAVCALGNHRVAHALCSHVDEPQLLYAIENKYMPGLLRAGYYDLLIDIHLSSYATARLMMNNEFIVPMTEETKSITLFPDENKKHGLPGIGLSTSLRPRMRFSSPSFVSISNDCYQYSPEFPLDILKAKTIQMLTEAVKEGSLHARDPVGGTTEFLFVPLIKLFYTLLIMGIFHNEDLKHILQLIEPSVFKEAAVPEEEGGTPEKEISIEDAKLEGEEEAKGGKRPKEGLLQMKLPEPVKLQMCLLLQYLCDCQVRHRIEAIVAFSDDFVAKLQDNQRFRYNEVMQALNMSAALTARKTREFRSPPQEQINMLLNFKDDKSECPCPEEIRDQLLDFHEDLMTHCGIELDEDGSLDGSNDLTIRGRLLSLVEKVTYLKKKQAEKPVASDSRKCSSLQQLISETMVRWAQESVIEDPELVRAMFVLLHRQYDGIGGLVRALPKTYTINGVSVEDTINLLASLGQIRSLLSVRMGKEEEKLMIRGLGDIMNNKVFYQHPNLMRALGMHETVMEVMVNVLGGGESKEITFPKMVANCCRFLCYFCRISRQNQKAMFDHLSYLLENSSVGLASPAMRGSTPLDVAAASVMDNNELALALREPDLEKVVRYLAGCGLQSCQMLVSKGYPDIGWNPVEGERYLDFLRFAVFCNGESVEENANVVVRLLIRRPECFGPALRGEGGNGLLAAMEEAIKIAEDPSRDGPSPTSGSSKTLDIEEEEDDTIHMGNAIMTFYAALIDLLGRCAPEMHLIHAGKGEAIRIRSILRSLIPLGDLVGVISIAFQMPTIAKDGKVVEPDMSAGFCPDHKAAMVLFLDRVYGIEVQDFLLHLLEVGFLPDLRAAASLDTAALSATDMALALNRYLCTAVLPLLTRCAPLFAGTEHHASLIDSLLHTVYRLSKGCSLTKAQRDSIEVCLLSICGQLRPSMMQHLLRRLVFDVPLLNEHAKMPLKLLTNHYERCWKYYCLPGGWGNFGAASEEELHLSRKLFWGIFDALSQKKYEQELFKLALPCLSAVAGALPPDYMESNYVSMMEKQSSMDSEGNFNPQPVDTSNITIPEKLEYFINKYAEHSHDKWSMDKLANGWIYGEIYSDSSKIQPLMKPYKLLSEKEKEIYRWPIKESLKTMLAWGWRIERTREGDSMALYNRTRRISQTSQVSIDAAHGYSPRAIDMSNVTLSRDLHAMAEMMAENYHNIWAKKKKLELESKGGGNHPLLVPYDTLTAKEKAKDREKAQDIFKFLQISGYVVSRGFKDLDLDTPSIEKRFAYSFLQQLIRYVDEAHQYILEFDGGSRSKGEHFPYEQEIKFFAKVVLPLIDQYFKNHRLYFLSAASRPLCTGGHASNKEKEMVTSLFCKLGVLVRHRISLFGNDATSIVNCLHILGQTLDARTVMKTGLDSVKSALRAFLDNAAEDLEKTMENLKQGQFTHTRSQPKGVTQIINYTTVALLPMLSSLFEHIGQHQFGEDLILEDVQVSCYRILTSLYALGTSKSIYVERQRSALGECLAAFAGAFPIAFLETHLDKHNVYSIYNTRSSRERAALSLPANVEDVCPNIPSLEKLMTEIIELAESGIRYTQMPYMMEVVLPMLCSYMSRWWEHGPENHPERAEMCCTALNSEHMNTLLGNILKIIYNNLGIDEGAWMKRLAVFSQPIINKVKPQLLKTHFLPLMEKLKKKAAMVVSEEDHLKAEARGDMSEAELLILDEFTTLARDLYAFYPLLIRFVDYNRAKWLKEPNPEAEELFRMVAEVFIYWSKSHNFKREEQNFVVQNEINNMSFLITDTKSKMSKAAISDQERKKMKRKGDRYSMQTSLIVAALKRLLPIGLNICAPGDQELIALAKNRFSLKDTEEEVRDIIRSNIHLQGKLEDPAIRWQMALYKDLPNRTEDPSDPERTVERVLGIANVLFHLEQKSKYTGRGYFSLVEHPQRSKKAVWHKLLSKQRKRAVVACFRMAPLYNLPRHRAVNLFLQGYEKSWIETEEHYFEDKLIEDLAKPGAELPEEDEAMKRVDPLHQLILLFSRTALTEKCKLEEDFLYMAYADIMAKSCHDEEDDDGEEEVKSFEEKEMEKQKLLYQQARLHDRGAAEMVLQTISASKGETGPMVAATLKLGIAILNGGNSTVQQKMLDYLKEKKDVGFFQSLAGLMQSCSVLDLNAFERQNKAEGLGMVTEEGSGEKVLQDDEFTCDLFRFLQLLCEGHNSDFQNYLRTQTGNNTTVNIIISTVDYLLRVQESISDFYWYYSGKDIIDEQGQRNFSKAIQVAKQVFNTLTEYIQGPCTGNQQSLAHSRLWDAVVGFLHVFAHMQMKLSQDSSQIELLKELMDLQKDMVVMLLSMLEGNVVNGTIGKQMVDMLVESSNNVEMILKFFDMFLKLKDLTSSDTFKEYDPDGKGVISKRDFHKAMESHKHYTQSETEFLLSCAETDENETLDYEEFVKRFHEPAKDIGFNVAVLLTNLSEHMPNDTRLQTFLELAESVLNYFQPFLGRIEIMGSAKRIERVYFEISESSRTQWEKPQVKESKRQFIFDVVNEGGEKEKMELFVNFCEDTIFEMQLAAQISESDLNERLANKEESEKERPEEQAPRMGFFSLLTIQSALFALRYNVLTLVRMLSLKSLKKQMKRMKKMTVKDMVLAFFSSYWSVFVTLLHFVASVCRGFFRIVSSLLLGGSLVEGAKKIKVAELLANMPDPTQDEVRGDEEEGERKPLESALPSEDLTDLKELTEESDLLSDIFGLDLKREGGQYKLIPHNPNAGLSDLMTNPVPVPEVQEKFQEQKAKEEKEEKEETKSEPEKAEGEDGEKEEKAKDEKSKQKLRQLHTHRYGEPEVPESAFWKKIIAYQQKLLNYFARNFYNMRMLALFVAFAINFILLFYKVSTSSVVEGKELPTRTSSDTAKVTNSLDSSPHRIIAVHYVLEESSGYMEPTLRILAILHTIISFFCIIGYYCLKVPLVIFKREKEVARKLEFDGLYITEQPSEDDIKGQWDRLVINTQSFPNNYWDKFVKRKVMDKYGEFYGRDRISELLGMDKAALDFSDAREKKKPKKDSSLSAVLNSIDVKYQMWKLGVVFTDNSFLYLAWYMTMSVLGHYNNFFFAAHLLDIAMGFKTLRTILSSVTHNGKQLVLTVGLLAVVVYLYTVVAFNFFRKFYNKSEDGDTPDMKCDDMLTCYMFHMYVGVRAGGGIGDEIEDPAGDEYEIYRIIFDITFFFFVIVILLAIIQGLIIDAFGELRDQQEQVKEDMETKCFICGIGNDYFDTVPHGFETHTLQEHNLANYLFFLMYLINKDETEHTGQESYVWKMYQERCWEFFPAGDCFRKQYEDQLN

Pe [1]	Pe class (low/medium/high; poor) [1]	RyR2 effect class (RyR2)	EC50 (RyR2) [nM]	effect on [Ca2+]ER / R-CEPIA1er fluorescence (F/F0) (RyR2)	Structure (SMILES)	viability at 24 h, 100 μM [2] [%]	dose response of F/F0 ([Ca2+]ER) (RyR2; concentration range 10^–11 to 10^–4 M)
3.6 10^–6 cm/s	high	+	18.6		COc1ccc(SCCCN(CCCCC2(O)CC2)CCCCC2(O)CC2)cc1 [12c, 1,1′-(((3-((4-Methoxyphenyl)thio)propyl)azanediyl)bis(butane-4,1-diyl))bis(cyclopropan-1-ol)]	90	
6.8 10^–6 cm/s	high	++		significantly increased [Ca^2+]ER	COc1ccc2c(c1)CN(Cc1ccc(C(=O)O)cc1)CCS2 [ARM210, reference compound]	90	
0.8 10^–6 cm/s	poor permeability and low	++			COc1ccc2c(c1)CN(CCCCNCCCCC1(O)CC1)CCS2 [11a, 1-(4-((4-(7-Methoxy-2,3-dihydrobenzo[1,4-f]thiazepin-4(5H)-yl)butyl)amino)butyl)cyclopropan-1-ol]	84	
3.6 10^–6 cm/s	high			no significant RyR2-stabilizing effect	COc1ccc2c(c1)CN(CCCCC1(O)CC1)CCS2 [11d, 1-(4-(7-Methoxy-2,3-dihydrobenzo[1,4-f]thiazepin-4(5H)-yl)butyl)cyclopropan-1-ol]	95	
0.6 10^–6 cm/s	poor permeability and low	+++			COc1ccc2c(c1)CN(CCCCN(CCCCC1(O)CC1)CCCCC1(O)CC1)CCS2 [12a, 1,1′-(((4-(7-Methoxy-2,3-dihydrobenzo[1,4-f]thiazepin-4(5H)-yl)butyl)azanediyl)bis(butane-4,1-diyl))bis(cyclopropan-1-ol)]	80	most pronounced effect of all of the other compounds
6.9 10^–6 cm/s	high	++	10.2		COc1ccc(SCCCNCCCCC2(O)CC2)cc1 [11c, 1-(4-((3-((4-Methoxyphenyl)thio)propyl)amino)butyl)cyclopropan-1-ol]	73	
4.0 10^–6 cm/s	high	+++	81.5		COc1ccc(OCCCNCCCCC2(O)CC2)cc1 [11b, 1-(4-((3-(4-Methoxyphenoxy)propyl)amino)butyl)cyclopropan-1-ol]	100	

From PMC10726367 (Journal of Medicinal Chemistry, 2023)
